Here are results for 20 compounds from patent publication US10442759B2, “1-sulfonamido-4-aryloxy compounds, and preparation method and medicinal application thereof” (priority 2016, dated 2019).

One assay concerns ARE (HepG2-ARE-C8 cells). Nature of the assay: ARE luciferase reporter assay. Format: cell-based. Particulars: for Luciferase reporter activity (fold of induction): HepG2-ARE-C8 cells, 12 hrs.
The target of assay [1] is Keap1-Nrf2 protein-protein interaction (Keap1 Kelch domain protein, FITC-9mer Nrf2 polypeptide probe) (Homo sapiens (Human), UniProt Q14145). Nature of the assay: Fluorescence polarization-based Keap1-Nrf2 protein-protein interaction inhibition experiment (FP experiment). Format: binding. Conditions: for IC50: FP experiment, Keap1 Kelch domain, FITC-9mer Nrf2 probe.
Keap1-Nrf2 protein-protein interaction (Keap1 Kelch domain protein, FITC-9mer Nrf2 polypeptide probe), sequence (Q14145 321-609): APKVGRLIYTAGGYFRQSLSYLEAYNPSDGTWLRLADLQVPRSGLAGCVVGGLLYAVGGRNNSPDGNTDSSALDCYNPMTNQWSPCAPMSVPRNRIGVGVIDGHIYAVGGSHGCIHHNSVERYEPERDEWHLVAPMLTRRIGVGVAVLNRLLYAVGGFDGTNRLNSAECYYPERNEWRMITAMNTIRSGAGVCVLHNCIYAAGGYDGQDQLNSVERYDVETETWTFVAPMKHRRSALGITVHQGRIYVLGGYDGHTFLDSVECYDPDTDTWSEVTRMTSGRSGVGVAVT
Method: Fluorescence Polarization-Based Keap1-Nrf2 Protein-Protein Interaction Inhibition Experiment (FP Experiment)
The instrument used in the FP experiment was the SpectraMax Multi-Mode Microplate Reader (Molecular Devices), and the excitation and emission wavelengths of the instrument were selected based on the corresponding fluorophore.
Before the test, the system was mixed well and incubated for 30 minutes at room temperature. […] In this study, the fluorescence intensities in horizontal and vertical directions (F∥ and F^⊥) were used to calculate the millipolarization value (mP), so as to reflect the changes of the polarized light.
where Pmax, Pmin, and Pobs represent the polarization value in the well containing Keap1 and the fluorescence probe, the polarization value in the well containing the fluorescence probe, and the polarization value of the well containing the inhibitor, respectively. The IC50 of the compounds was calculated from curve of the inhibition rate against the inhibitor concentration.

Method for ARE (HepG2-ARE-C8 cells): ARE Luciferase Reporter Assay
100 μL was added to a 96-well microtiter plate and incubated overnight.
(2) 2 times of the desired concentration of the test compound was formulated in a culture medium, and 100 μL was added respectively to the corresponding wells. tBHQ was used as a positive control and DMSO was used as a negative control. The 96-well microtiter plate added with the compound was incubated for 12 hrs at a constant temperature of 37° C., 5% CO2, and saturated humidity.
(3) The 5× lysis buffer in the Luciferase Assay Kit was formulated into a 1× lysis buffer for future use.
(4) The 96-well microtiter plate was removed, the medium was aspirated from the wells, the cells were washed with 1×PBS buffer, and the PBS buffer was aspirated off after the wash. […] After the lysis, the lysate was stood for 3-5 min, and 20 μL of the lysate supernatant was aspirated into a corresponding 96-well white plate.
(5) The 96-well white plate was positioned in the Thermo Scientific Luminoskan Ascent Chemiluminescence Micropore Reader. 100 μL of a luciferase assay reagent (obtained by uniformly mixing 1 bottle of luciferase assay substrate in the luciferase assay kit and 1 bottle of luciferase detection buffer) was added to each well before the test, and the plate was read within 1 min after the test reagent was added.

Regarding “2-(4-(2,4,6-trimethyl-N-(2-(hydroxylamino)-2-oxoethylbenzenesulfonamido) naphthalen-1-oxy)-benzeneacetic acid [Compound I-13]”, the “Luciferase reporter activity (fold of induction)” value with ARE (HepG2-ARE-C8 cells) (0.1 μmol/L) is reported as 1.07 fold of induction; in the assay with ARE (HepG2-ARE-C8 cells) (1 μmol/L), 1.16 fold of induction; with ARE (HepG2-ARE-C8 cells) (10 μmol/L) it was 1.21 fold of induction. In assay [1], this compound returned a 50% inhibitory concentration (IC50) of 980 nM.
In the case of “2-(4-(2,4,6-trimethylbenzenesulfonamido)naphthalen-1-oxy)benzeneacetic acid [Compound I-11]”, the figures for the “Luciferase reporter activity (fold of induction)” value in the assay on ARE (HepG2-ARE-C8 cells) (0.1 μmol/L), with ARE (HepG2-ARE-C8 cells) (1 μmol/L) and with ARE (HepG2-ARE-C8 cells) (10 μmol/L) were 1.02 fold of induction, 1.34 fold of induction and 1.14 fold of induction, respectively. This compound came in with an IC50 in assay [1] of 2430 nM.
“2-(4-(2,4,6-trimethylbenzenesulfonamido)naphthalen-1-yl)oxy)-2-benzeneacetic acid [Compound I-2]”: the “Luciferase reporter activity (fold of induction)” value with ARE (HepG2-ARE-C8 cells) (0.1 μmol/L) is 1.21 fold of induction; with ARE (HepG2-ARE-C8 cells) (1 μmol/L), 1.10 fold of induction; with ARE (HepG2-ARE-C8 cells) (10 μmol/L), 1.05 fold of induction. For the same compound, in assay [1], the IC50 was 1320 nM.
The like results for “3-(4-((N-carboxymethyl)-2,4,6-trimethylbenzenesulfonamido)naphthalen-1-yloxy)-(4-methoxyphenyl)propionic acid [Compound I-20]” were, in that order, 1.02 fold of induction, 1.13 fold of induction, 1.28 fold of induction and 830 nM.
For `COc1ccc(S(=O)(=O)N(CC(=O)O)c2ccc(Oc3ccccc3CC(=O)O)c3ccccc23)cc1` [Compound I-1], the “Luciferase reporter activity (fold of induction)” value in the assay on ARE (HepG2-ARE-C8 cells) (0.1 μmol/L) is recorded as 0.98 fold of induction; in the assay on ARE (HepG2-ARE-C8 cells) (1 μmol/L), 1.10 fold of induction; in the assay on ARE (HepG2-ARE-C8 cells) (10 μmol/L), 1.07 fold of induction. This compound had a half-maximal inhibitory concentration (IC50) in assay [1] of 2280 nM.
For `Cc1cc(C)c(S(=O)(=O)N(CC(=O)O)c2ccc(Oc3ccccc3CC(=O)O)c3ccccc23)c(C)c1` [Compound I-3], the “Luciferase reporter activity (fold of induction)” value was 0.95 fold of induction with ARE (HepG2-ARE-C8 cells) (0.1 μmol/L), 1.03 fold of induction in the assay on ARE (HepG2-ARE-C8 cells) (1 μmol/L) and 1.31 fold of induction with ARE (HepG2-ARE-C8 cells) (10 μmol/L). This compound yielded an IC50 in assay [1] of 580 nM.
For `CC(C)(C)c1ccc(S(=O)(=O)N(CC(=O)O)c2ccc(OC(C(=O)O)c3ccccc3)c3ccccc23)cc1` (stereo not shown) [Compound I-4] the same measures were 1.04 fold of induction, 1.12 fold of induction, 1.13 fold of induction and 980 nM.
The like results for `COc1ccc(S(=O)(=O)N(CC(=O)O)c2ccc(Oc3ccccc3CC(=O)O)c3ccccc23)cc1OC` [Compound I-5] were, in that order, 0.92 fold of induction, 1.05 fold of induction, 1.10 fold of induction and 2300 nM.
For `COc1cc(OC)c(S(=O)(=O)N(CC(=O)O)c2ccc(OC(C(=O)O)c3ccccc3)c3ccccc23)c(OC)c1` (stereo not shown) [Compound I-6] the same measures were 1.01 fold of induction, 1.26 fold of induction, 1.09 fold of induction and 640 nM.
Take `CC(=O)Nc1ccc(S(=O)(=O)N(CC(=O)O)c2ccc(Oc3ccccc3CC(=O)O)c3ccccc23)cc1` [Compound I-7]: the results for the “Luciferase reporter activity (fold of induction)” value in the assay on ARE (HepG2-ARE-C8 cells) (0.1 μmol/L), in the assay with ARE (HepG2-ARE-C8 cells) (1 μmol/L) and with ARE (HepG2-ARE-C8 cells) (10 μmol/L) were 0.97 fold of induction, 1.01 fold of induction and 1.03 fold of induction, respectively. This compound had an IC50 in assay [1] of 5230 nM.
Consider `O=C(O)CN(c1ccc(OC(C(=O)O)c2ccccc2)c2ccccc12)S(=O)(=O)c1ccc([N+](=O)[O-])cc1` (stereo not shown) [Compound I-8, 2-(4-(N-(carboxymethyl)-4-nitrobenzenesulfonamido))naphthalen-1-oxy) benzeneacetate], for which the “Luciferase reporter activity (fold of induction)” value in the assay with ARE (HepG2-ARE-C8 cells) (0.1 μmol/L) is 1.05 fold of induction; in the assay on ARE (HepG2-ARE-C8 cells) (1 μmol/L) it was 1.23 fold of induction; in the assay on ARE (HepG2-ARE-C8 cells) (10 μmol/L), 1.14 fold of induction. In assay [1], this compound gave an IC50 of 4790 nM.
For `O=C(O)CN(c1ccc(OC(C(=O)O)c2ccccc2)c2ccccc12)S(=O)(=O)c1ccc(F)cc1` (stereo not shown) [Compound I-9] the same measures were 1.02 fold of induction, 1.13 fold of induction, 1.08 fold of induction and 5160 nM.
Regarding `O=C(O)Cc1ccccc1Oc1ccc(N(CC(=O)O)S(=O)(=O)c2ccc(C(F)(F)F)cc2)c2ccccc12` [Compound I-10], the “Luciferase reporter activity (fold of induction)” value in the assay with ARE (HepG2-ARE-C8 cells) (0.1 μmol/L) is listed as 0.92 fold of induction; with ARE (HepG2-ARE-C8 cells) (1 μmol/L) it was 0.95 fold of induction; in the assay with ARE (HepG2-ARE-C8 cells) (10 μmol/L) it was 1.10 fold of induction. In addition, in assay [1], the IC50 stood at 6660 nM.
The like results for `Cc1cc(C)c(S(=O)(=O)N(Cc2nn[nH]n2)c2ccc(Oc3ccccc3CC(=O)O)c3ccccc23)c(C)c1` [Compound I-12, 2-(4-((N-(2H-tetrazol-5-yl)methyl)-2,4,6-trimethylbenzenesulfonamido)naphthalen-1-oxy)benzeneacetic acid] were, in that order, 1.05 fold of induction, 1.19 fold of induction, 1.36 fold of induction and 830 nM.
Consider `CCOc1ccc(C(Oc2ccc(N(CC(=O)O)S(=O)(=O)c3c(C)cc(C)cc3C)c3ccccc23)C(=O)O)cc1` (stereo not shown) [Compound I-15], for which the “Luciferase reporter activity (fold of induction)” value in the assay with ARE (HepG2-ARE-C8 cells) (0.1 μmol/L) is recorded as 1.33 fold of induction; in the assay on ARE (HepG2-ARE-C8 cells) (1 μmol/L) it was 2.05 fold of induction; in the assay with ARE (HepG2-ARE-C8 cells) (10 μmol/L), 3.92 fold of induction. For the same compound, the “fold of induction compared with the positive control tBHQ” value in the assay with ARE (HepG2-ARE-C8 cells) (10 μM) is “significantly higher than that of the positive control tBHQ”. The “FP activity compared with the positive control Nrf2 9mer polypeptide” value in assay [1] was “better than the positive control”. The compound also gave an IC50 in assay [1] of 84 nM.
As for `CC(=O)Nc1ccc(C(Oc2ccc(N(CC(=O)O)S(=O)(=O)c3c(C)cc(C)cc3C)c3ccccc23)C(=O)O)cc1` (stereo not shown) [Compound I-16], the “Luciferase reporter activity (fold of induction)” value in the assay with ARE (HepG2-ARE-C8 cells) (0.1 μmol/L) is given as 1.21 fold of induction; in the assay on ARE (HepG2-ARE-C8 cells) (1 μmol/L), 1.98 fold of induction; in the assay with ARE (HepG2-ARE-C8 cells) (10 μmol/L), 3.23 fold of induction. Moreover, the “FP activity compared with the positive control Nrf2 9mer polypeptide” value in assay [1] is recorded as “better than the positive control”. The compound further showed an IC50 in assay [1] of 90 nM.
For `COc1cc(OC)c(S(=O)(=O)N(CC(=O)O)c2ccc(OC(C(=O)O)c3ccc(OC(C)C)cc3)c3ccccc23)c(OC)c1` (stereo not shown) [Compound I-17], the results for the “Luciferase reporter activity (fold of induction)” value in the assay on ARE (HepG2-ARE-C8 cells) (0.1 μmol/L), with ARE (HepG2-ARE-C8 cells) (1 μmol/L) and in the assay with ARE (HepG2-ARE-C8 cells) (10 μmol/L) were 1.39 fold of induction, 1.39 fold of induction and 2.07 fold of induction, respectively. The IC50 in assay [1] came out at 320 nM.
On to `COc1cc(OC)c(S(=O)(=O)N(CC(=O)O)c2ccc(OC(C(=O)O)c3ccc(F)cc3)c3ccccc23)c(OC)c1` (stereo not shown) [Compound I-18], for which the “Luciferase reporter activity (fold of induction)” value is on record as 1.03 fold of induction with ARE (HepG2-ARE-C8 cells) (0.1 μmol/L), 1.42 fold of induction in the assay on ARE (HepG2-ARE-C8 cells) (1 μmol/L) and 1.57 fold of induction in the assay with ARE (HepG2-ARE-C8 cells) (10 μmol/L). Moreover, the IC50 in assay [1] is 310 nM.
The like results for `COc1ccc(C(Oc2ccc(N(Cc3nn[nH]n3)S(=O)(=O)c3c(C)cc(C)cc3C)c3ccccc23)C(=O)O)cc1` (stereo not shown) [Compound I-19, 2-(4-((N-(2H-tetrazol-5-yl)methyl)-2,4,6-trimethylbenzenesulfonamido)naphthalen-1-oxy)-(4-methoxyphenyl)acetic acid] were, in that order, 0.97 fold of induction, 1.43 fold of induction, 2.58 fold of induction and 140 nM.
For the compound `CC(C)(C)c1cc(O)ccc1O` [tBHQ, t-butylhydroquinone, reference compound], the results for the “Luciferase reporter activity (fold of induction)” value with ARE (HepG2-ARE-C8 cells) (0.1 μmol/L), with ARE (HepG2-ARE-C8 cells) (1 μmol/L) and in the assay with ARE (HepG2-ARE-C8 cells) (10 μmol/L) were 1.46 fold of induction, 1.38 fold of induction and 3.61 fold of induction, respectively.
